Test results published in patent US20230340011A1 (Asteroid Therapeutics, priority 2022, published 2023).

Target: LXRβ (Homo sapiens (Human), UniProt P55055)
Test: In vitro assay LXRβ: PathHunter NHR CHO cells, LXRβ / Steroid Receptor Co-activator Peptide enzyme fragment complementation
Assay type: cell-based
Conditions: PathHunter NHR CHO cells, full-length human LXRβ and SRCP, chemiluminescent signal; read-out: LXRβ PPI
How it was run: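 Enzyme fragment complementation read-out: CHO cells stably expressing ProLink-tagged full-length human LXRβ plus nuclear enzyme acceptor–SRCP fusion, seeded and held overnight at 37° C. Medium with charcoal-dextran filtered serum; final vehicle 1%. Chemiluminescence measured after signal generation.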

Sequence of LXRβ (P55055 whole entry, the tested form may be a part): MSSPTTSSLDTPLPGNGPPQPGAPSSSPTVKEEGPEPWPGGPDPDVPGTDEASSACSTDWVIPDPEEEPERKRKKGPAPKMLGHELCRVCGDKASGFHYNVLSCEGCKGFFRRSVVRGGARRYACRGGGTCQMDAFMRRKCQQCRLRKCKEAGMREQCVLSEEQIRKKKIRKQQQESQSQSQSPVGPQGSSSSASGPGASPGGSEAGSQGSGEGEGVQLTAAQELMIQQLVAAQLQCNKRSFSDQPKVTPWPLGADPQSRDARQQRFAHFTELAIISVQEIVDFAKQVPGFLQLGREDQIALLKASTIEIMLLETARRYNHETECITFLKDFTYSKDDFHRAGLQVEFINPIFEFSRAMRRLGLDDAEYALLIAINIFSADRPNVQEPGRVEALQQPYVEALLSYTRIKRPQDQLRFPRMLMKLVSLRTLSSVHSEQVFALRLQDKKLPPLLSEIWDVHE

| Structure (SMILES) | EC50 [µM] |
| --- | --- |
| CON(C(=O)CC[C@@H](C)[C@H]1CC[C@H]2[C@@H]3CC=C4C[C@@H](O)CC[C@]4(C)[C@H]3CC[C@]12C)C(C)C [Example 15, (R)-4-((3S,8S,9S,10R,13R,14S,17R)-3-hydroxy-10,13-dimethyl-2,3,4,7,8,9,10,11,12,13,14,15,16,17-tetradecahydro-1H-cyclopenta[a]phenanthren-17-yl)-N-isopropyl-N-methoxypentanamide] | 1 to 10 |
| C[C@H](CCC(=O)N1CCN(c2cnn(C)c2)CC1)[C@H]1CC[C@H]2[C@@H]3CC=C4C[C@@H](O)CC[C@]4(C)[C@H]3CC[C@]12C [Example 214, (R)-4-((3S,8S,9S,10R,13R,14S,17R)-3-hydroxy-10,13-dimethyl-2,3,4,7,8,9,10,11,12,13,14,15,16,17-tetradecahydro-1H-cyclopenta[a]phenanthren-17-yl)-1-(4-(1-methyl-1H-pyrazol-4-yl)piperazin-1-yl)pentan-1-one] | > 10 |
| CC(C)C(=O)N1CCN(C(=O)CC[C@@H](C)[C@H]2CC[C@H]3[C@@H]4CC=C5C[C@@H](O)CC[C@]5(C)[C@H]4CC[C@]23C)CC1 [Example 315, (R)-4-((3S,8S,9S,10R,13R,14S,17R)-3-hydroxy-10,13-dimethyl-2,3,4,7,8,9,10,11,12,13,14,15,16,17-tetradecahydro-1H-cyclopenta[a]phenanthren-17-yl)-1-(4-isobutyrylpiperazin-1-yl)pentan-1-one] | > 10 |
| C[C@H](CCC(=O)N(C)OC1CCCC1)[C@H]1CC[C@H]2[C@@H]3CC=C4C[C@@H](O)CC[C@]4(C)[C@H]3CC[C@]12C [Example 61, (R)-4-((3S,8S,9S,10R,13R,14S,17R)-3-hydroxy-10,13-dimethyl-2,3,4,7,8,9,10,11,12,13,14,15,16,17-tetradecahydro-1H-cyclopenta[a]phenanthren-17-yl)-N-(methyl)-N-cyclopentoxypentanamide] | 1 to 10 |
| C[C@H](CCC(=O)N1CCN(C(=O)C2CC2)CC1)[C@H]1CC[C@H]2[C@@H]3CC=C4C[C@@H](O)CC[C@]4(C)[C@H]3CC[C@]12C [Example 314, (4R)-4-[(1R,3aS,3bS,7S,9aR,9bS,11aR)-7-hydroxy-9a,11a-dimethyl-1H,2H,3H,3aH,3bH,4H,6H,7H,8H,9H,9aH,9bH,10H,11H,11aH-cyclopenta[a]phenanthren-1-yl]-1-(4-cyclopropanecarbonylpiperazin-1-yl)pentan-1-one] | > 10 |
| C[C@@H]1CCCN(C(=O)CC[C@@H](C)[C@H]2CC[C@H]3[C@@H]4CC=C5C[C@@H](O)CC[C@]5(C)[C@H]4CC[C@]23C)O1 [Example 60, (R)-4-((3S,8S,9S,10R,13R,14S,17R)-3-hydroxy-10,13-dimethyl-2,3,4,7,8,9,10,11,12,13,14,15,16,17-tetradecahydro-1H-cyclopenta[a]phenanthren-17-yl)-1-((R)-6-methyl-1,2-oxazinan-2-yl)pentan-1-one] | 0.25 to 1 |
| C[C@H](CCC(=O)N1CCN(c2ncccn2)CC1)[C@H]1CC[C@H]2[C@@H]3CC=C4C[C@@H](O)CC[C@]4(C)[C@H]3CC[C@]12C [Example 305, (R)-4-((3S,8S,9S,10R,13R,14S,17R)-3-hydroxy-10,13-dimethyl-2,3,4,7,8,9,10,11,12,13,14,15,16,17-tetradecahydro-1H-cyclopenta[a]phenanthren-17-yl)-1-(4-(pyrimidin-2-yl)piperazin-1-yl)pentan-1-one] | > 10 |
| C[C@@H]1CCN(C(=O)CC[C@@H](C)[C@H]2CC[C@H]3[C@@H]4CC=C5C[C@@H](O)CC[C@]5(C)[C@H]4CC[C@]23C)O1 [Example 59, (R)-4-((3S,8S,9S,10R,13R,14S,17R)-3-hydroxy-10,13-dimethyl-2,3,4,7,8,9,10,11,12,13,14,15,16,17-tetradecahydro-1H-cyclopenta[a]phenanthren-17-yl)-1-((R)-5-methylisoxazolidin-2-yl)pentan-1-one] | 0.25 to 1 |
